{"source": "patent US9375013B2", "about": "“Herbicidal composition” (ISHIHARA SANGYO KAISHA, LTD., priority 2013, dated 2016)", "assay_type_in_all_cases": "in vivo", "key": {"[1]": {"system": "ivy-leaved morningglory (Ipomoea hederacea (L.) Jacq.)", "assay": "Test Example 2: pot soil treatment, growth inhibition of ivy-leaved morningglory", "settings": "22nd day after treatment, read-out: Growth inhibition rate (%) of ivy-leaved morningglory, Measured value", "source_text": "(§1) On the 14th day after treatment, the state of growth of the summergrass was visually observed to determine the growth inhibition rate in accordance with the following evaluation standard. The growth inhibition rate (%) (measured value) and the growth inhibition rate (%) (calculated value) calculated by the Colby's formula are shown in Table 1. Growth inhibition rate (%)=0 (equivalent to the non-treated area) to 100 (complete kill) Upland field soil was put into a 1/160,000 ha pot, and seeds of ivy-leaved morningglory (Ipomoea hederacea (L.) Jacq.) were sown. On the next day, predetermined amounts of flazasulfuron and hexazinone were diluted with water (in an amount corresponding to 300 L/ha), and applied for soil treatment by a small sprayer. On the 22nd day after treatment, the state of growth of the ivy-leaved morningglory was visually observed to determine the growth inhibition rate. The growth inhibition rate (%) (measured value) and the growth inhibition rate (%) calculated in the same manner as in Test Example 1 are shown in Table 2."}, "[2]": {"system": "field bindweed (Convolvulus arvensis L.)", "assay": "Test Example 5: pot soil treatment, growth inhibition of field bindweed", "settings": "dose 300 g/ha, 22nd day after treatment, read-out: Growth inhibition rate (%) of field bindweed, Measured value", "source_text": "as §1, with “field bindweed (Convolvulus arvensis L.)” for “ivy-leaved morningglory (Ipomoea hederacea (L.) Jacq.)”, “field bindweed” for “ivy-leaved morningglory”, “5.” for “2.”"}, "[3]": {"system": "shattercane (Sorghum bicolor (L.) Moench.)", "assay": "Test Example 6: pot soil treatment, growth inhibition of shattercane", "settings": "dose 100 g/ha, 22nd day after treatment, read-out: Growth inhibition rate (%) of shattercane, Measured value", "source_text": "On the 14th day after treatment, the state of growth of the summergrass was visually observed to determine the growth inhibition rate in accordance with the following evaluation standard. The growth inhibition rate (%) (measured value) and the growth inhibition rate (%) (calculated value) calculated by the Colby's formula are shown in Table 1. Growth inhibition rate (%)=0 (equivalent to the non-treated area) to 100 (complete kill)\nUpland field soil was put into a 1/160,000 ha pot, and seeds of shattercane (Sorghum bicolor (L.) Moench.) were sown. On the next day, predetermined amounts of flazasulfuron and hexazinone were diluted with water (in an amount corresponding to 300 L/ha), and applied for soil treatment by a small sprayer.\nOn the 22nd day after treatment, the state of growth of the shattercane was visually observed to determine the growth inhibition rate. The growth inhibition rate (%) (measured value) and the growth inhibition rate (%) calculated in the same manner as in Test Example 1 are shown in Table 6."}, "[4]": {"system": "barnyardgrass (Echinochloa crus-galli L)", "assay": "Test Example 9: pot soil treatment, growth inhibition of barnyardgrass", "settings": "dose 100 g/ha, 21st day after treatment, read-out: Growth inhibition rate (%) of barnyardgrass, Measured value", "source_text": "as §1, with “barnyardgrass (Echinochloa crus-galli L)” for “ivy-leaved morningglory (Ipomoea hederacea (L.) Jacq.)”, “21st” for “22nd”, “barnyardgrass” for “ivy-leaved morningglory”, “9.” for “2.”"}, "[5]": {"system": "persian speedwell (Veronica persica Poiret.)", "assay": "Test Example 10: pot soil treatment, growth inhibition of persian speedwell", "settings": "dose 100 g/ha, 21st day after treatment, read-out: Growth inhibition rate (%) of persian speedwell, Measured value"}, "[6]": {"system": "velvetleaf (Abutilon theophrasti MEDIC.)", "assay": "Test Example 14: pot soil treatment, growth inhibition of velvetleaf", "settings": "dose 200 g/ha, 21st day after treatment, read-out: Growth inhibition rate (%) of velvetleaf, Measured value", "source_text": "as §1, with “velvetleaf (Abutilon theophrasti MEDIC.)” for “ivy-leaved morningglory (Ipomoea hederacea (L.) Jacq.)”, “21st” for “22nd”, “velvetleaf” for “ivy-leaved morningglory”, “14.” for “2.”"}, "[7]": {"system": "summergrass (Digitaria ciliaris (Retz.) Koeler)", "assay": "Test Example 1: pot soil treatment, growth inhibition of summergrass", "settings": "dose 150 g/ha, 14th day after treatment, read-out: Growth inhibition rate (%) of summergrass, Measured value", "procedure": "Upland field soil was put into a 1/160,000 ha pot, and seeds of summergrass (Digitaria ciliaris (Retz.) Koeler) were sown. On the next day, predetermined amounts of flazasulfuron and imazapic were diluted with water (in an amount corresponding to 300 L/ha), and applied for soil treatment by a small sprayer. On the 14th day after treatment, the state of growth of the summergrass was visually observed to determine the growth inhibition rate in accordance with the following evaluation standard. The growth inhibition rate (%) (measured value) and the growth inhibition rate (%) (calculated value) calculated by the Colby's formula are shown in Table 1. Growth inhibition rate (%)=0 (equivalent to the non-treated area) to 100 (complete kill)"}, "[8]": {"system": "wild oat (Avena fatua L.)", "assay": "Test Example 3: pot soil treatment, growth inhibition of wild oat", "settings": "22nd day after treatment, read-out: Growth inhibition rate (%) of wild oat, Measured value", "source_text": "as §1, with “wild oat (Avena fatua L.)” for “ivy-leaved morningglory (Ipomoea hederacea (L.) Jacq.)”, “flazasulfuron, mesotrione” for “flazasulfuron”, “imazapic” for “hexazinone”, “wild oat” for “ivy-leaved morningglory”, “3.” for “2.”"}, "[9]": {"system": "persian speedwell (Veronica persica Poir.)", "assay": "Test Example 8: pot soil treatment, growth inhibition of persian speedwell", "settings": "21st day after treatment, read-out: Growth inhibition rate (%) of persian speedwell, Measured value"}, "[10]": {"system": "common ragweed (Ambrosia artemisiifolia L.)", "assay": "Test Example 11: pot soil treatment, growth inhibition of common ragweed", "settings": "dose 150 g/ha, 21st day after treatment, read-out: Growth inhibition rate (%) of common ragweed, Measured value", "source_text": "as §1, with “common ragweed (Ambrosia artemisiifolia L.)” for “ivy-leaved morningglory (Ipomoea hederacea (L.) Jacq.)”, “imazapic” for “hexazinone”, “21st” for “22nd”, “common ragweed” for “ivy-leaved morningglory”, “11.” for “2.”"}, "[11]": {"system": "common lespedeza (Lespedeza striata (Thunb.) Hook. et Arn.)", "assay": "Test Example 12: pot soil treatment, growth inhibition of common lespedeza", "settings": "Kummerowia striata, dose 50 g/ha, 21st day after treatment, read-out: Growth inhibition rate (%) of common lespedeza, Measured value", "source_text": "as §1, with “common lespedeza (Lespedeza striata (Thunb.) Hook. et Arn.)” for “ivy-leaved morningglory (Ipomoea hederacea (L.) Jacq.)”, “imazapic” for “hexazinone”, “21st” for “22nd”, “common lespedeza” for “ivy-leaved morningglory”, “12.” for “2.”"}, "[12]": {"system": "velvetleaf (Abutilon theophrasti MEDIC.)", "assay": "Test Example 13: pot soil treatment, growth inhibition of velvetleaf", "settings": "dose 50 g/ha, 21st day after treatment, read-out: Growth inhibition rate (%) of velvetleaf, Measured value"}, "[13]": {"system": "field bindweed (Convolvulus arvensis L.)", "assay": "Test Example 15: pot soil treatment, growth inhibition of field bindweed", "settings": "21st day after treatment, read-out: Growth inhibition rate (%) of field bindweed, Measured value", "source_text": "as §1, with “field bindweed (Convolvulus arvensis L.)” for “ivy-leaved morningglory (Ipomoea hederacea (L.) Jacq.)”, “flazasulfuron, mesotrione” for “flazasulfuron”, “imazapic” for “hexazinone”, “21st” for “22nd”, “field bindweed” for “ivy-leaved morningglory”, “15.” for “2.”"}, "[14]": {"system": "guinea grass (Panicum maximum Jacq.)", "assay": "Test Example 4: pot soil treatment, growth inhibition of guinea grass", "settings": "Megathyrsus maximus, dose 200 g/ha, 22nd day after treatment, read-out: Growth inhibition rate (%) of guinea grass, Measured value", "source_text": "as §1, with “guinea grass (Panicum maximum” for “ivy-leaved morningglory (Ipomoea hederacea (L.)”, “mesotrione” for “hexazinone”, “guinea grass” for “ivy-leaved morningglory”, “4.” for “2.”"}, "[15]": {"system": "rostrate sesbania(Sesbania rostrata Bremek. & Oberm.)", "assay": "Test Example 7: pot soil treatment, growth inhibition of rostrate sesbania", "settings": "22nd day after treatment, read-out: Growth inhibition rate (%) of rostrate sesbania, Measured value"}}, "data": [{"smiles": "CN(C)c1nc(=O)n(C2CCCCC2)c(=O)n1C", "note": "[Hexazinone, hexazinone]", "values": [{"measurement": "inhibition at 100 g/ha", "setting": "[1]; dose 100 g/ha", "result": 0, "unit": "%"}, {"measurement": "inhibition at 200 g/ha", "setting": "[1]; dose 200 g/ha", "result": 30, "unit": "%"}, {"measurement": "inhibition at 300 g/ha", "setting": "[1]; dose 300 g/ha", "result": 40, "unit": "%"}, {"measurement": "inhibition at 300 g/ha", "setting": "[2]", "result": 15, "unit": "%"}, {"measurement": "inhibition at 100 g/ha", "setting": "[3]", "result": 0, "unit": "%"}, {"measurement": "inhibition at 100 g/ha", "setting": "[4]", "result": 0, "unit": "%"}, {"measurement": "inhibition at 100 g/ha", "setting": "[5]", "result": 85, "unit": "%"}, {"measurement": "inhibition at 200 g/ha", "setting": "[6]", "result": 30, "unit": "%"}]}, {"smiles": "Cc1cnc(C2=NC(=O)C(C)(C(C)C)N2)c(C(=O)O)c1", "note": "(stereo not drawn) [Imazapic, imazapic]", "values": [{"measurement": "inhibition at 150 g/ha", "setting": "[7]", "result": 50, "unit": "%"}, {"measurement": "inhibition at 100 g/ha", "setting": "[8]; dose 100 g/ha", "result": 40, "unit": "%"}, {"measurement": "inhibition at 150 g/ha", "setting": "[8]; dose 150 g/ha", "result": 60, "unit": "%"}, {"measurement": "inhibition at 50 g/ha", "setting": "[9]", "result": 50, "unit": "%"}, {"measurement": "inhibition at 150 g/ha", "setting": "[10]", "result": 60, "unit": "%"}, {"measurement": "inhibition at 50 g/ha", "setting": "[11]", "result": 0, "unit": "%"}, {"measurement": "inhibition at 50 g/ha", "setting": "[12]", "result": 30, "unit": "%"}, {"measurement": "inhibition at 150 g/ha", "setting": "[13]; dose 150 g/ha", "result": 15, "unit": "%"}]}, {"smiles": "CS(=O)(=O)c1ccc(C(=O)C2C(=O)CCCC2=O)c([N+](=O)[O-])c1", "note": "[Mesotrione, mesotrione]", "values": [{"measurement": "inhibition at 50 g/ha", "setting": "[8]; dose 50 g/ha", "result": 40, "unit": "%"}, {"measurement": "inhibition at 200 g/ha", "setting": "[8]; dose 200 g/ha", "result": 0, "unit": "%"}, {"measurement": "inhibition at 200 g/ha", "setting": "[14]", "result": 0, "unit": "%"}, {"measurement": "inhibition at 50 g/ha", "setting": "[15]", "result": 15, "unit": "%"}, {"measurement": "inhibition at 200 g/ha", "setting": "[13]; dose 200 g/ha", "result": 60, "unit": "%"}]}]}
